According to ChEMBL document CHEMBL3832085:

Assay: clinical
Settings: human, in vivo, topical or ocular, 46.1 mg

Q: Which AUC (AUC(0 to inf)) does the source give for `CCN(CC)CC(=O)Nc1c(C)cccc1C` [LIDOCAINE] here?
A: 61.3 ng·h/mL

Q: What about the Cmax (Cmax) of the same molecule?
A: 27.2 ng/mL

Q: What about the Tmax (Tmax) of the same molecule?
A: 45 min
